Consider 1 molecule from the NIST ThermoML archive (doi:10.1021/acs.jced.7b00657).

The conditions of series [1]: 298 K; 101.33 kPa; Liquid; Vibrating tube method.
Series [2] can be described thus: refractive index (Na D-line) (dimensionless). The conditions noted are these: 293 K; 101.33 kPa; Liquid; Standard Abbe refractometry.

Molecules are shown by their SMILES. ± gives the expanded uncertainty stated by the source.

With `FC(F)(F)C(F)(F)C(F)(F)C(F)(F)C(F)(F)C(F)(F)C(F)(F)C(F)(F)F` [octadecafluorooctane], the mass density – broadly, the mass of a sample divided by its volume – in series [1] is given as 1756 ± 1 kg/m3. Moreover, in series [2], the refractive index (as a rule, a measure of how strongly the sample bends light) is reported as 1.268 ± 0.001.
